Melting point data for 62 molecules are collected here from a melting point compilation (Tetko et al.; mined from patent text by program, amines drawn as free bases though some values may be those of a salt).

Regarding `O=C(Cn1c(-c2ccc(Cl)cc2)nc2cccnc21)Nc1ccccn1`, the melting point was in the range of 190 to 191 °C.

`CC(C)(CC(O)(Cn1ccc(=O)c2sccc21)C(F)(F)F)c1cc(S(C)(=O)=O)cc2c1OCC2` (configuration not stated): the melting point lay within 163 to 165 °C.

Regarding `N#Cc1c2c(n(Cc3ccccc3)c1N)CCCC2`, the melting point is 128 to 130 °C.

In the case of `CN(C(=O)CCCOc1ccc2c(c1)CN(CC(=O)O)C(N)=N2)C1CCCCC1`, the melting point lay in the range of 125 to 128 °C.

Consider `O=C(Nc1ccc(Br)cc1)Nn1cnc2c(O)cccc2c1=O`, for which the melting point was in the range of 276 to 278 °C.

Molecule `CC1NC(=O)NN=C1c1ccc(OCC(=O)NCCN2CCN(C(=O)c3ccc(Cl)cc3)CC2)c(Cl)c1` (configuration not stated) gave a melting point of 186 to 188 °C.

In turn, `C[Si](C)(C)OC1(C(=O)c2ccccc2)CC2CCC(C1)N2CCCC(c1ccc(F)cc1)c1ccc(F)cc1` (configuration not stated) yielded a melting point of 111 to 113 °C.

In turn, `CC(C)(C)NC(=O)c1cc(F)ccc1N` gave a melting point of 77 to 78 °C.

`Cc1ccc(S(=O)(=O)N2[C@@H](CCc3nc(C)no3)CC[C@H]2c2ccc(F)cc2)cc1` (racemic) showed a melting point of 91 °C.

Molecule `Cc1cccc2nn(-c3cc(O)ccc3O)nc12` displayed a melting point of 202 to 203 °C.

The molecule `COc1ccc(C(=O)Nc2ccc(OCc3ccccc3)cc2N)cc1C12CC3CC(CC(C3)C1)C2` displayed a melting point of 185 °C.

Turning to `CCOC(=O)C(C(=O)Nc1nccs1)C(=O)c1cccc(C(F)(F)F)c1NC(=O)C(Cl)C(C)(C)C` (configuration not stated), the melting point amounted to 180 °C.

As for `CN1CCCC(O)(c2nccnc2Cl)C1` (configuration not stated), the melting point lay within 111 to 112 °C.

Turning to `COc1ccc(-n2nc(Sc3cc(OC)cc(OC)c3)c(C)c(C#N)c2=O)cc1`, the melting point lay within 181 to 184 °C.

`CCOC(=O)COc1cc(O)c2c(=O)cc(-c3ccc(OC)c(OCC(=O)N4CCN(Cc5ccc(OC)c(OC)c5OC)CC4)c3)oc2c1` showed a melting point of 105 to 106 °C.

For `CCONC(=O)c1cc(NC(C)=C2C(=O)OC(=O)C(C(C)=O)=C2O)cc(C(=O)NOCC)c1`, the melting point lay in the range of 234 to 235 °C.

The molecule `COc1ccccc1NC(C#N)c1c(Cl)cccc1Cl` (configuration not stated) came in with a melting point of 118 °C.

The molecule `O=CC(=Cc1cccc(OCc2ccc(Cl)cc2)c1)C(C=O)=Cc1cccc(OCc2ccc(Cl)cc2)c1` registered a melting point of 193 to 194 °C.

`CCn1cc(C(=O)O)c(=O)c2cc(F)c(N3CCN(S(=O)(=O)c4ccccc4)CC3)c(F)c21` yielded a melting point of 234 to 235 °C.

For `COc1cc(COc2nn(-c3ccc(C(F)(F)F)cc3)cc2/C=C/CO)ccc1OCc1nc(-c2ccccc2)oc1C`, the melting point lay in the range of 118 to 119 °C.

With `COc1ccccc1C(Cl)=C(Cl)n1ccnc1`, the melting point stood at 101 °C.

`FC(F)(F)Oc1ccc(-c2ncc(Br)cn2)cc1` had a melting point of 107 to 108 °C.

In turn, `CN1CCN(c2cc3c(cc2Cl)c(=O)c(C(=O)O)cn3C)CC1` registered a melting point of 286 °C.

Regarding `O=c1[nH]c2ccc(-c3cc(CN4CCC(Cc5ccc(F)cc5)CC4)on3)cc2o1`, the melting point was in the range of 237 to 244 °C.

`NS(=O)(=O)c1cc2c(Cl)csc2s1` yielded a melting point of 158 to 160 °C.

Regarding `NC(=O)c1nnn(Cc2ccccc2Br)c1N`, the melting point is 211 to 213 °C.

Molecule `O=C(O)c1cncc(OCc2ccccc2)n1` displayed a melting point of 160 to 162 °C.

Turning to `CN1CCN(C(=O)c2cc(-c3ccccc3)c(=O)[nH]c2-c2c(Cl)cccc2C#N)CC1`, the melting point is 250 to 253 °C.

`CCOCc1nc2c(N)nc3cc(Br)cnc3c2n1CCCON=C(C)C` gave a melting point of 128 to 130 °C.

Molecule `CC(=O)NCCC1CCc2ccc3nn(C)cc3c21` (configuration not stated) returned a melting point of 123 to 125 °C.

With `COc1cc2ncnc(Nc3ccc(F)c(Cl)c3)c2cc1OCCN1CC(=O)O[C@@H](C)C1`, the melting point is 212 to 213 °C.

Molecule `CCC1CCCCN1C(=O)C=Cc1c(-c2cccc(Cl)c2)nn2ccccc12` (configuration not stated) displayed a melting point of 100 to 104 °C.

On to `CCN1C(=O)C(C)(C)C(=O)N(C)c2cc(CN(CCn3cc(C)c4occc4c3=O)Cc3cc(COC)nn3C)ccc21`, for which the melting point was in the range of 169 to 170 °C.

In turn, `CCCCCCCCCCSCCCCCCCCCCNC(=O)OCCN1CCOCC1` gave a melting point of 91 °C.

In turn, `CCOC(=O)c1cn(-c2cnc3ccccc3c2)cn1` had a melting point of 170 to 171 °C.

As to `COC(=O)c1cc2cc(OC)c(OC)cc2nc1/N=C/N(C)C`, the melting point was 166 to 168 °C.

`Clc1cc(Cl)n2nc(SCc3ccccc3)nc2c1` displayed a melting point of 88 to 89 °C.

Molecule `CCCCC(NC(=O)C(CC(C)C)NC(=O)c1cccc2ccccc12)C(=O)CSCc1ccco1` (configuration not stated) returned a melting point of 81 to 83 °C.

`O=c1cc(CCCCBr)c2ccccc2[nH]1` had a melting point of 156 to 158 °C.

In turn, `O=C(O)C(Cl)(Cl)CCCCCCCCCCOc1ccc(Cl)cc1` displayed a melting point of 63 to 64 °C.

Molecule `CCOC(=O)C1C(=O)N(C)c2ccc(Cl)cc2S1(=O)=O` (configuration not stated) returned a melting point of 86 to 91 °C.

`COC(=O)C(NC(=O)c1cc2cc(Cl)ccc2[nH]1)C(C)c1ccccc1` (configuration not stated): the melting point fell in the range of 135 to 136 °C.

In the case of `CCOC(=O)C(=O)CCc1ccc(OC)c(OC)c1`, the melting point lay within 85 to 87 °C.

Molecule `CCOC(=O)Nc1ccc(Cl)nc1` returned a melting point of 110 °C.

In the case of `CCOC(=O)c1cc2c(OCC3CO3)cc(C)cc2[nH]1` (configuration not stated), the melting point was 173 to 175 °C.

As to `CC(=O)c1cc([N+](=O)[O-])c2c(c1)C(C)(C)CCO2`, the melting point lay in the range of 117 to 119 °C.

`NS(=O)(=O)c1ccc2cc(O)c(O)cc2c1` showed a melting point of 218 to 228 °C.

Molecule `COc1ccc(OCCCCCc2cc(C)on2)c(Cl)c1` returned a melting point of 45 to 47 °C.

The molecule `CC(C)(C)OC(=O)N1CCN(c2ccc(NC(=O)Nc3cc(Cl)ccc3N)cc2)CC1` had a melting point of 187 to 189 °C.

Turning to `Nc1nc2cc(OCc3ccccc3)ccc2c2c1nc(CCCCNC(=O)Nc1ccccc1)n2CCOc1ccccc1`, the melting point was 186 to 187 °C.

On to `COC(=O)c1c(C(=O)OC)c2sc3ccccc3n2c1C`, for which the melting point lay within 143 to 144 °C.

Molecule `COc1c(NC(=O)COc2ccccc2)c(C(N)=O)c(OC)c(NC(=O)COc2ccccc2)c1C(N)=O` had a melting point of 272 to 274 °C.

For the molecule `COc1ccc(/C=C(\C#N)c2c(Cl)cccc2Cl)cc1OC1CCCC1`, the melting point was 164 to 166 °C.

The molecule `COc1c(C)cc(C(=O)CCC(=O)O)cc1C` had a melting point of 108 °C.

As for `COCCOc1ccc(CCC(=O)NS(=O)(=O)c2ccc(F)cc2)c(Oc2ncc(C(F)(F)F)cc2Cl)c1`, the melting point is 136 to 138 °C.

`CC(C)(C)OC(=O)c1nc(-c2ccc(Cl)cc2)[nH]c1-c1ccncc1` registered a melting point of 206 to 207 °C.

`O=c1[nH]c2ccc(S(=O)CCN3CCC(O)(Cc4ccc(F)cc4)CC3)cc2o1` (configuration not stated) showed a melting point of 153 to 155 °C.

Molecule `Cc1nc(-c2ccc(Cl)cc2)sc1C(=O)NCc1ccc(OC(C)(C)C(=O)O)cc1` returned a melting point of 131 °C.

As to `COc1ncc(-c2nn(C(C)c3oc4ccccc4c(=O)c3-c3cccc(F)c3)c3ncnc(N)c23)cn1` (configuration not stated), the melting point was in the range of 224 to 227 °C.

In the case of `Nc1cc2c(Nc3ccc(OCc4ccccn4)c(Cl)c3)ncnc2cn1`, the melting point lay within 247 to 250 °C.

In turn, `O=C(NCC#CCN1CCOCC1)N1c2ccccc2-c2noc3c2C1CCC3` (configuration not stated) displayed a melting point of 186 °C.

Molecule `O=C1CCC(O)(c2ccc(Cl)cc2)CC1` displayed a melting point of 138 to 139 °C.

For orientation: melting point means the temperature, or range, at which the solid turns liquid.
